Experimental data taken from DBAASP.
In brackets after ≈: the same amount, converted by molar mass. One block for each compound: values may come before it.

Experiments:
Test in all cases: ≥ marks a high value that may be exact or a test limit, other limits are often not marked, values filed in µg/mL are converted to µM
Acinetobacter baumannii = system: Acinetobacter baumannii
[1] = system: Candida albicans ATCC 90028
[2] = system: Cutibacterium acnes ATCC 11828
[3] = system: Cutibacterium acnes ATCC 15725
[4] = system: Cutibacterium acnes ATCC 18380
[5] = system: Cutibacterium acnes ATCC 29903
[6] = system: Cutibacterium acnes ATCC 31766
[7] = system: Cutibacterium acnes ATCC 32548
[8] = system: Cutibacterium acnes ATCC 33257
[9] = system: Cutibacterium acnes ATCC 50247
[10] = system: Escherichia coli ATCC 25726
[11] = system: Staphylococcus aureus ATCC 25923
[12] = system: Bacillus subtilis ATCC 6633
[13] = system: Candida albicans ATCC 2002
[14] = system: Pseudomonas fluorescens ATCC 13525
[15] = system: Staphylococcus aureus ATCC 2592
[16] = system: Candida albicans ATCC 36232
[17] = system: Corynebacterium diphtheriae ATCC 8024
[18] = system: Escherichia coli ATCC 2592
[19] = system: Micrococcus luteus ATCC 9341
[20] = system: Pseudomonas aeruginosa ATCC 9027
[21] = system: Shigella flexneri ATCC 203
[22] = system: Staphylococcus aureus ATCC 6538
Staphylococcus aureus = system: Staphylococcus aureus
[23] = system: Staphylococcus epidermidis ATCC 12228
Enterococcus faecalis = system: Enterococcus faecalis
Escherichia coli W3110 = system: Escherichia coli W3110
[24] = system: Pseudomonas aeruginosa PAK
[25] = system: Streptococcus mutans UA159
[26] = system: Streptococcus sanguinis NY101
[27] = system: Streptococcus sobrinus ATCC 33478
[28] = system: Bacillus cereus ATCC 11778
[29] = system: Escherichia coli ATCC 25922
[30] = system: Listeria monocytogenes ATCC BAA-751
[31] = system: Salmonella enterica subsp. enterica serovar Typhimurium ATCC 14028
[32] = system: Staphylococcus aureus ATCC 29213
[33] = system: Staphylococcus aureus ATCC 43300
Enterococcus faecium = system: Enterococcus faecium
[34] = system: Escherichia coli O18:K1:H7 Bort
[35] = system: Pseudomonas aeruginosa ATCC 27853
Serratia marcescens = system: Serratia marcescens
Streptococcus agalactiae = system: Streptococcus agalactiae

- MIC (Acinetobacter baumannii): 2.23 µM (≈ 4.11 µg/mL)
- MIC [1]: 25 µM (≈ 46.2 µg/mL)
- MIC [2]: 3 µM (≈ 5.54 µg/mL)
- MIC [3]: 6 µM (≈ 11.1 µg/mL)
- MIC [4]: 25 µM (≈ 46.2 µg/mL)
- MIC [5]: 25 µM (≈ 46.2 µg/mL)
- MIC [6]: 12.5 µM (≈ 23.1 µg/mL)
- MIC [7]: 6 µM (≈ 11.1 µg/mL)
- MIC [8]: 6 µM (≈ 11.1 µg/mL)
- MIC [9]: 12.5 µM (≈ 23.1 µg/mL)
- MIC [10]: 12.5 µM (≈ 23.1 µg/mL)
- MIC [11]: 6 µM (≈ 11.1 µg/mL)
Compound: CC[C@H](C)[C@H](NC(=O)[C@H](CCCCN)NC(=O)[C@H](CC(C)C)NC(=O)[C@H](CC(C)C)NC(=O)[C@@H]1CCCN1C(=O)[C@H](CCCCN)NC(=O)[C@H](CC(C)C)NC(=O)[C@H](CC(C)C)NC(=O)CN)C(=O)N[C@@H](C)C(=O)N[C@@H](C)C(=O)N[C@@H](CCCCN)C(=O)N[C@H](C(=O)NCC(=O)N[C@@H](CO)C(=O)N[C@@H](CC(N)=O)C(=O)N[C@@H](CC(C)C)C(=O)N[C@@H](CC(C)C)C(N)=O)C(C)C [GLLKPLLKIAAKVGSNLL]

- MIC [12]: 2.34 µM (≈ 6 µg/mL)
- MIC [13]: 19.5 µM (≈ 50 µg/mL)
- MIC [14]: 31.2 µM (≈ 79.9 µg/mL)
- MIC [15]: 3.9 µM (≈ 9.99 µg/mL)
Compound: CC[C@H](C)[C@H](NC(=O)[C@H](C)NC(=O)[C@@H](NC(=O)[C@@H]1CCCN1C(=O)[C@H](CC(C)C)NC(=O)[C@@H](NC(=O)[C@H](CC(N)=O)NC(=O)[C@H](C)NC(=O)[C@H](C)NC(=O)[C@@H](NC(=O)[C@H](CCCCN)NC(=O)[C@H](CC(C)C)NC(=O)[C@H](C)NC(=O)[C@@H](NC(=O)CNC(=O)[C@H](Cc1ccccc1)NC(=O)[C@@H](N)Cc1ccccc1)[C@@H](C)O)[C@@H](C)CC)C(C)C)[C@@H](C)O)C(=O)N[C@H]1CSSC[C@@H](C(=O)O)NC(=O)[C@H](CCCCN)NC(=O)[C@H](CCCCN)NC(=O)[C@H](CC(C)C)NC(=O)[C@H]([C@@H](C)CC)NC(=O)[C@H](CCCCN)NC1=O [FFGTALKIAANVLPTAICKILKKC]

- MIC [12]: ≥ 63.5 µM
- MIC [16]: ≥ 63.5 µM
- MIC [17]: ≥ 63.5 µM
- MIC [18]: ≥ 63.5 µM
- MIC [19]: ≥ 63.5 µM
- MIC [20]: > 63.5 µM
- MIC [21]: ≥ 63.5 µM
- MIC [22]: > 63.5 µM
- MIC (Staphylococcus aureus): > 63.5 µM
- MIC [23]: > 63.5 µM
Compound: CC[C@H](C)[C@H](NC(=O)[C@H](CC(=O)O)NC(=O)[C@H](CS)NC(=O)[C@@H](NC(=O)[C@@H](N)C(C)C)[C@@H](C)O)C(=O)N[C@@H](CC(C)C)C(=O)N[C@@H](CO)C(=O)N[C@H](C(=O)N[C@@H](CCC(=O)O)C(=O)N[C@@H](C)C(=O)N[C@@H](CCCCN)C(=O)NCC(=O)N[C@H](C(=O)N[C@@H](CCCCN)C(=O)N[C@@H](CC(C)C)C(N)=O)C(C)C)C(C)C [VTCDILSVEAKGVKL]

- MIC (Enterococcus faecalis): ≥ 93.4 µM
- MIC (Escherichia coli W3110): 23.4 µM (≈ 62.5 µg/mL)
- MIC [24]: ≥ 46.7 µM
- MIC (Staphylococcus aureus): > 187 µM
- MIC [25]: 12 µM (≈ 32 µg/mL)
- MIC [26]: ≥ 46.7 µM
- MIC [27]: ≥ 46.7 µM
Compound: CC[C@H](C)[C@H](NC(=O)[C@H](Cc1ccccc1)NC(=O)[C@H](Cc1cnc[nH]1)NC(=O)[C@H](CCCCN)NC(=O)[C@@H](NC(=O)[C@H](Cc1ccccc1)NC(=O)[C@@H]1CCCN1C(=O)[C@H](CO)NC(=O)[C@@H]1CCCN1C(=O)[C@H](CO)NC(=O)[C@@H]1CCCN1C(=O)[C@H](Cc1ccccc1)NC(=O)[C@H](Cc1cnc[nH]1)NC(=O)[C@H](CC(C)C)NC(=O)[C@H](Cc1cnc[nH]1)NC(=O)[C@H](Cc1ccccc1)NC(=O)[C@H](Cc1cnc[nH]1)NC(=O)[C@@H](N)Cc1ccccc1)[C@@H](C)CC)C(=O)N[C@@H](Cc1cnc[nH]1)C(=O)N[C@@H](CCCN=C(N)N)C(=O)N[C@@H](Cc1ccccc1)C(N)=O [FHFHLHFPSPSPFIKHFIHRF]

- MIC [28]: ≥ 250 µM
- MIC [29]: 15.2 µM (≈ 34.5 µg/mL)
- MIC [30]: ≥ 125 µM
- MIC [20]: 31.3 µM (≈ 70.9 µg/mL)
- MIC [31]: 62.5 µM (≈ 142 µg/mL)
- MIC [11]: 250 µM (≈ 567 µg/mL)
- MIC [32]: > 250 µM
- MIC [33]: > 250 µM
Compound: CC[C@H](C)[C@H](NC(=O)CNC(=O)[C@H](CCCCN)NC(=O)[C@@H](NC(=O)[C@H](CC(C)C)NC(=O)[C@H](CO)NC(=O)CNC(=O)[C@H](CC(C)C)NC(=O)CNC(=O)[C@H](C)NC(=O)[C@H](CCCCN)NC(=O)[C@H](Cc1ccccc1)NC(=O)[C@@H](NC(=O)[C@H](CCC(=O)O)NC(=O)[C@H](CCCCN)NC(=O)[C@H](CC(C)C)NC(=O)CN)[C@@H](C)CC)C(C)C)C(=O)N[C@@H](C)C(=O)N[C@@H](C)C(=O)N[C@@H](Cc1cnc[nH]1)C(=O)N[C@H](C(=O)N[C@@H](C)C(=O)N[C@@H](CO)C(=O)O)C(C)C [GLKEIFKAGLGSLVKGIAAHVAS]

- MIC (Enterococcus faecium): 8 µM (≈ 17.2 µg/mL)
- MIC [34]: 2 µM (≈ 4.3 µg/mL)
- MIC [35]: 8 µM (≈ 17.2 µg/mL)
- MIC (Serratia marcescens): 16 µM (≈ 34.4 µg/mL)
- MIC (Staphylococcus aureus): 8 µM (≈ 17.2 µg/mL)
- MIC (Streptococcus agalactiae): 4 µM (≈ 8.6 µg/mL)
Compound: CC[C@H](C)[C@H](N)C(=O)N[C@@H](CC(C)C)C(=O)N[C@@H](CCCN=C(N)N)C(=O)N[C@@H](C)C(=O)N[C@@H](Cc1c[nH]c2ccccc12)C(=O)N[C@@H](CCCCN)C(=O)N[C@@H](CCCCN)C(=O)N[C@@H](Cc1ccc(O)cc1)C(=O)NCC(=O)N1CCC[C@H]1C(=O)N[C@H](C(=O)N[C@H](C(=O)N[C@H](C(=O)N1CCC[C@H]1C(=O)N[C@H](C(=O)N[C@H](C(=O)N[C@@H](CCCN=C(N)N)C(=O)N[C@H](C(N)=O)[C@@H](C)CC)[C@@H](C)CC)[C@@H](C)CC)C(C)C)[C@@H](C)CC)[C@@H](C)CC [ILRAWKKYGPIIVPIIRI]
